Reference: patent publication US20260001876A1, “Compounds and Their Use as PDE4 Activators” (Mironid Limited, priority 2022, published 2026)

System: m-IMCD3 cells
Test: Inhibition of PGE2-stimulated in vitro cyst formation in m-IMCD3 cells (3D culture)
Format: cell-based
Conditions: Mus musculus, mIMCD3, 144 h; 3 μM; mean cyst area; 100% for (DMSO + PGE2) and 0% for DMSO control; 6 days of culture; read-out: % Cyst area* after incubation with 3 μM test compound
Method: HEK 293 and MDCK cells (Public Health England, Cell Culture Collections) were maintained in Dulbecco's Modified Eagle's Medium (DMEM) supplemented with 10% (v/v) fetal bovine serum (FBS) (Seralab), 2 mM L-glutamine and 100 U/mL penicillin streptomycin cocktail (ThermoFisher); termed complete media. Clonal HEK 293 cell lines were maintained in complete media supplemented with 0.6 mg/ml G418 (Enzo Life Sciences). Mouse inner medullary collecting duct (m-IMCD3) cells [American Type Culture Collection (ATCC)] were maintained in media consisting of DMEM/Hams F-12 50/50 Mix (DMEM F12; Corning) supplemented with penicillin streptomycin cocktail (100 U/mL) and FBS (10% v/v) (DMEM F12-10% FBS).
Experiment 3: Inhibition of In Vitro Cyst Formation in m-IMCD3 Cells Treated with PDE4 Long Form Activators
The mouse Inner Medullary Collecting Duct cell line (m-IMCD3) spontaneously forms cystic spheroids in 3D culture with a Type 1 collagen/Matrigel extracellular matrix. This process can be stimulated with agents which raise intracellular cAMP and is used as an in vitro model for the formation of cystic structures in the kidneys of patients with ADPKD.
Rat Collagen I (Fisher Scientific) is prepared on ice by neutralising with 1M NaOH and diluting with a 2× volume of DMEM/F12+10% FBS. This is mixed 1:1.1 with ice cold Matrigel (Corning) for coating plates (coating mix), and 1:0.93 with Matrigel for cell plating (plating mix).
The assay is conducted in the wells of a 96-well plate culture dish using a total volume of 130 μL of collagen/Matrigel/DMEM F12-10% FBS suspension in growth media for each matrix plug per individual well. Initially, 30 μL of collagen/Matrigel/DMEM F12-10% FBS (coating mix) is added into the well of a 96 well plate and the collagen is set to a gel by incubating at 37° C. for at least 15 minutes. A second layer of 100 μL collagen/Matrigel suspension (plating mix) containing m-IMCD3 cells (2.75×10^6 m-IMCD3 cells per 96-well plate) is layered over the coating mix and the collagen/Matrigel/cell mix again set to a gel by incubating at 37° C. Cell cultures are maintained at 37° C. in an atmosphere of 5% CO2, 95% air.
Between 18 and 24 h after plating, test compound(s) as DMSO stock solutions [0.1% (v/v) final DMSO concentration] and PGE2 (100 nM final concentration) in DMEM F12-10% FBS are added in quadruplicate wells per condition. Media, together with the test compound and PGE2 are replenished after 2 or 3 days. After 6 days of culture z stack images of the wells are captured using the Nikon Eclipse Ti2-E microscope. Nikon General Analysis software is used to measure the following parameters in each well: the mean cyst area, the number of cysts, and the total cyst area.
PDE4 long form activators inhibited in vitro cyst formation in m-IMCD3 cells. Data are shown in Table 4 as mean cyst area (%), compared to 100% for (DMSO+PGE2) and 0% for DMSO control.

SMILES	activity at 3 µM [%]
COCCN1CC2CCC(C1)N2c1ccc2c(n1)CCN(C(=O)COc1ccc(F)cc1)C2 [Example 173, 2-(4-fluorophenoxy)-1-(2-(3-(2-methoxyethyl)-3,8-diazabicyclo[3.2.1]octan-8-yl)-7,8-dihydro-1,6-naphthyridin-6(5H)-yl)ethan-1-one]	3
O=C(CC1CCCC1)N1CCc2nc(N3CC4CCC3CN4)ccc2C1 (stereo not drawn) [Example 153, 1-(2-(2,5-diazabicyclo[2.2.2]octan-2-yl)-7,8-dihydro-1,6-naphthyridin-6(5H)-yl)-2-cyclopentylethan-1-one]	2
O=C(COc1ccc(F)cc1)N1CCc2nc(N3CCNCC3)ccc2C1 [Example 180, 2-(4-fluorophenoxy)-1-(2-(piperazin-1-yl)-7,8-dihydro-1,6-naphthyridin-6(5H)-yl)ethan-1-one]	11
O=S(=O)(Cc1ccccc1)N1CCc2nc(N3CCNCC3)ccc2C1 [Example 164, 6-(benzylsulfonyl)-2-(piperazin-1-yl)-5,6,7,8-tetrahydro-1,6-naphthyridine]	0
O=C(Cc1ccccc1)N1CCc2nc(N3CCNCC3)ccc2C1 [Example 175, 2-phenyl-1-(2-(piperazin-1-yl)-7,8-dihydro-1,6-naphthyridin-6(5H)-yl)ethan-1-one]	2
O=C(OCc1ccccc1)N1CCc2nc(N3C4CCC3CNC4)ccc2C1 [Example 127, benzyl 2-(3,8-diazabicyclo[3.2.1]octan-8-yl)-7,8-dihydro-1,6-naphthyridine-6(5H)-carboxylate]	3
O=C(CC1CCCC1)N1CCc2nc(N3CC4CCC(C3)N4)ccc2C1 [Example 154, 1-(2-(3,8-diazabicyclo[3.2.1]octan-3-yl)-7,8-dihydro-1,6-naphthyridin-6(5H)-yl)-2-cyclopentylethan-1-one]	-6
O=C(CC1CCCC1)N1CCc2nc(N3CCNCC3)ncc2C1 [Example 143, 2-cyclopentyl-1-(2-(piperazin-1-yl)-7,8-dihydropyrido[4,3-d]pyrimidin-6(5H)-yl)ethan-1-one]	22
O=C(OC1CCCC1)N1CCc2nc(N3C4CCC3CNC4)ccc2C1 [Example 125, cyclopentyl 2-(3,8-diazabicyclo[3.2.1]octan-8-yl)-7,8-dihydro-1,6-naphthyridine-6(5H)-carboxylate]	-3
Cc1ncccc1-c1ccc2c(n1)CCN(C(=O)CC1CCCC1)C2 [Example 181, 2-cyclopentyl-1-(2-(2-methylpyridin-3-yl)-7,8-dihydro-1,6-naphthyridin-6(5H)-yl)ethan-1-one]	26
O=C(Cc1ccccc1)N1CCc2nc(N3CC4CCC(C3)N4)ncc2C1 [Example 135, 1-(2-(3,8-diazabicyclo[3.2.1]octan-3-yl)-7,8-dihydropyrido[4,3-d]pyrimidin-6(5H)-yl)-2-phenylethan-1-one]	-5
O=C(CC1CCCCC1)N1CCc2nc(N3CCNCC3)ncc2C1 [Example 145, 2-cyclohexyl-1-(2-(piperazin-1-yl)-7,8-dihydropyrido[4,3-d]pyrimidin-6(5H)-yl)ethan-1-one]	15
CCN1CC2CCC(C1)N2c1ccc2c(n1)CCN(C(=O)COc1ccc(F)cc1)C2 [Example 171, 1-(2-(3-ethyl-3,8-diazabicyclo[3.2.1]octan-8-yl)-7,8-dihydro-1,6-naphthyridin-6(5H)-yl)-2-(4-fluorophenoxy)ethan-1-one]	4
O=C(CC1CCCC1)N1CCc2cc(N3C4CCC3CNC4)cnc2C1 [Example 177, 1-(3-(3,8-diazabicyclo[3.2.1]octan-8-yl)-5,8-dihydro-1,7-naphthyridin-7 (6H)-yl)-2-cyclopentylethan-1-one]	10
O=C(Cc1ccc(F)cc1)N1CCc2nc(N3CCNCC3)ncc2C1 [Example 140, 2-(4-fluorophenyl)-1-(2-(piperazin-1-yl)-7,8-dihydropyrido[4,3-d]pyrimidin-6(5H)-yl)ethan-1-one]	6
O=C(CC1CCCC1)N1CCc2nc(N3C4CCC3CNC4)ncc2C1 [Example 142, 1-(2-(3,8-diazabicyclo[3.2.1]octan-8-yl)-7,8-dihydropyrido[4,3-d]pyrimidin-6(5H)-yl)-2-cyclopentylethan-1-one]	26
O=C(CC1CCCC1)N1CCc2nc(N3C4CNCC3CC(O)C4)ccc2C1 (stereo not drawn) [Example 157, 2-cyclopentyl-1-(2-(7-hydroxy-3,9-diazabicyclo[3.3.1]nonan-9-yl)-7,8-dihydro-1,6-naphthyridin-6(5H)-yl)ethan-1-one]	10
CC(C)[C@H](C)C(=O)N1Cc2ccc(N3C4CCC3CNC4)nc2C1 [Example 128, (2S)-1-(2-(3,8-diazabicyclo[3.2.1]octan-8-yl)-5,7-dihydro-6H-pyrrolo[3,4-b]pyridin-6-yl)-2,3-dimethylbutan-1-one]	3
N#Cc1ccc(CC(=O)N2CCc3nc(N4CCNCC4)ncc3C2)cc1 [Example 137, 4-(2-oxo-2-(2-(piperazin-1-yl)-7,8-dihydropyrido[4,3-d]pyrimidin-6(5H)-yl)ethyl)benzonitrile]	13
CC(C)(C)CC(=O)N1CCc2nc(N3C4CCC3CNC4)ncc2C1 [Example 146, 1-(2-(3,8-diazabicyclo[3.2.1]octan-8-yl)-7,8-dihydropyrido[4,3-d]pyrimidin-6(5H)-yl)-3,3-dimethylbutan-1-one]	22
N#Cc1ccc(CC(=O)N2CCc3nc(N4CC5CCC(C4)N5)ncc3C2)cc1 [Example 138, 4-(2-(2-(3,8-diazabicyclo[3.2.1]octan-3-yl)-7,8-dihydropyrido[4,3-d]pyrimidin-6(5H)-yl)-2-oxoethyl)benzonitrile]	0
COCCCN1CC2CCC(C1)N2c1ccc2c(n1)CCN(C(=O)COc1ccc(F)cc1)C2 [Example 174, 2-(4-fluorophenoxy)-1-(2-(3-(3-methoxypropyl)-3,8-diazabicyclo[3.2.1]octan-8-yl)-7,8-dihydro-1,6-naphthyridin-6(5H)-yl)ethan-1-one]	1

Same assay, conditions: Mus musculus, mIMCD3, 144 h; 10 μM; mean cyst area; 100% for (DMSO + PGE2) and 0% for DMSO control; 6 days of culture; read-out: % Cyst area* after incubation with 10 μM test compound

SMILES	activity at 10 µM [%]
CC1(CC(=O)N2CCc3nc(N4C5CCC4CNC5)ccc3C2)CCCC1 [Example 119, 1-(2-(3,8-diazabicyclo[3.2.1]octan-8-yl)-7,8-dihydro-1,6-naphthyridin-6(5H)-yl)-2-(1-methylcyclopentyl)ethan-1-one]	-4
O=C(NC1CCC(F)(F)CC1)N1Cc2ccc(N3C4CCC3CNC4)nc2C1 [Example 89, 2-(3,8-diazabicyclo[3.2.1]octan-8-yl)-N-(4,4-difluorocyclohexyl)-5,7-dihydro-6H-pyrrolo[3,4-b]pyridine-6-carboxamide]	2
O=C(CC1CCCC1)N1CCc2nc(N3CCN[C@@H](CO)C3)ccc2C1 (single isomer, unassigned) [Example 131]	-4
CC(C)C(C)C(=O)N1CCc2nc(N3C4CCC3CNC4)ccc2C1 (stereo not drawn) [Example 44, 1-(2-(3,8-diazabicyclo[3.2.1]octan-8-yl)-7,8-dihydro-1,6-naphthyridin-6(5H)-yl)-2,3-dimethylbutan-1-one]	-2
CCN(CC)C(=O)N1Cc2ccc(N3C4CCC3CNC4)nc2C1 [Example 96, 2-(3,8-diazabicyclo[3.2.1]octan-8-yl)-N,N-diethyl-5,7-dihydro-6H-pyrrolo[3,4-b]pyridine-6-carboxamide]	-4
